Where two headings read alike, the source gives them in different places.

Assay [1] addresses human dopamine D3 receptor (Homo sapiens (Human), UniProt P35462). As to the kind of experiment: Human D2-like receptor competition binding in HEK cells, D3. The note with it: for D2/D3: ratio of Ki at D2 over Ki at D3. The source says:
(§1) Human dopamine D2-long (D2) and D3 (D3) receptors were expressed in HEK cells. In brief, stably transfected HEK cells expressing the human D2-long and the D3 dopamine receptor were developed using the pIRES bicistronic expression vector (CLONTECH; Palo Alto, Calif.). […] For comparison, human dopamine D4 (D4) receptors were obtained from HEK 293 cells stably transfected with a PCR product of a human cDNA coding for the D4.4 form of the human D4 dopamine receptor.
(§2) The procedures to determine the binding affinities at the human dopamine D2-like receptors, the binding affinities at the serotonin 5HT1A, 5HT2A and 5HT2c receptors and functional mitogenesis assay are known in the art. […] Both of these references are incorporated by reference.

Assay [2] concerns the target T1, D2 receptor (human) in CHOp-cells (Homo sapiens (Human), UniProt P14416). The assay can be described thus: D2 inhibition of quinpirole stimulation of mitogenesis (antagonist assay). In kind it is cell-based. Conditions: inhibition of 30 nM quinpirole stimulated mitogenesis, read-out: IC50 ± S.E.M., D2. The procedure: (§3) The cells were incubated at 37° C. in α-MEM with 10% FBS, 0.05% penicillin-streptomycin, and 200 μg/mL of G418. After 48 hours, the cells were rinsed twice with serum-free α-MEM and incubated for 24 hours at 37° C. In the functional assay for agonism, the medium was removed and replaced with 90 μl of serum-free α-MEM and 10 μl of test compound in sterile water; in the antagonist assay, the test compound was diluted in sterile water plus 30 nM quinpirole. After another 24-hour incubation at 37° C., 0.25 μCi of [^3H]thymidine was added to each well and the plates were further incubated for 2 hours at 37° C. The cells were then trypsinized, and the plates were filtered and counted as usual in the art. Quinpirole was run on every plate as an internal standard.
as §2

Assay [3] deals with human dopamine D2-long (D2) receptor (Homo sapiens (Human), UniProt P14416). As to the kind of experiment: Human D2-like receptor competition binding in HEK cells, D2. Conditions: hD2L.
Excerpt: as §1, §2

Assay [4] concerns the target serotonin 5HT2c receptor (Homo sapiens (Human), UniProt P28335). The assay can be described thus: Serotonin receptor binding, 5HT2c. Conditions: ratio of affinities, 5HT2c over D3.
Excerpt: as §2

The target in assay [5] is serotonin 5HT2A receptor (Homo sapiens (Human), UniProt P28223). The assay can be described thus: Serotonin receptor binding, 5HT2A. The note with it: ratio of affinities.
Excerpt: as §2

In assay [6] the target is serotonin 5HT1A receptor (Homo sapiens (Human), UniProt P08908). As to the kind of experiment: Serotonin receptor binding, 5HT1A. The note with it: ratio of affinities. From the text:
(§4) The procedures to determine the binding affinities at the human dopamine D2-like receptors, the binding affinities at the serotonin 5HT1A, 5HT2A and 5HT2c receptors and functional mitogenesis assay are known in the art. See J. Med. Chem. 2005, 48, 839-848. See also, NIDA Research Monograph #178, Proceedings of the College of Drug Dependence, p. 440-466, 1998. Both of these references are incorporated by reference.

In assay [7] the target is T2, human dopamine D3 receptors in CHO cells (Homo sapiens (Human), UniProt P35462). The assay can be described thus: D3 inhibition of quinpirole stimulation of mitogenesis (antagonist assay). In kind it is cell-based. The note with it: inhibition of 30 nM quinpirole stimulated mitogenesis, CHOp cells; read-out: IC50 ± S.E.M., D3. As for the experimental part:
as §3, §2

Assay [8] concerns the target T1, D2 receptor (human) in CHOp-cells. As to the kind of experiment: D2 stimulation of mitogenesis (agonist assay). In kind it is cell-based. Conditions: for EC50: read-out: partial agonist activity: EC50, D2. As for the experimental part:
as §3, §4

Assay [9] has as its target T3, human D4.4 dopamine receptor (Homo sapiens (Human), UniProt P21917). As to the kind of experiment: Human D2-like receptor competition binding in HEK cells, D4. Conditions: for Ki: HEK 293 cells, hD4.4; for D4/D3 Ki ratio: head printed D4/D2, values correspond to D4 Ki over D3 Ki.
Excerpt: as §1, §2

The target of assay [10] is T2, human dopamine D3 receptors in CHO cells. As to the kind of experiment: D3 stimulation of mitogenesis (agonist assay). Conditions: CHOp cells; for EC50: read-out: partial agonist activity: EC50, D3 (converted). Type of assay: cell-based. As for the experimental part: as §3, §4
In assay [11] the target is D1a dopamine receptors (Homo sapiens (Human), UniProt P21728). Conditions: cited from earlier work.
The test system of assay [12] is σ1 binding sites. Conditions: cited from earlier work.
Assay [13] concerns the target T3, human D4.4 dopamine receptor. The note with it: HEK 293 cells; relative to D2 and D3; cited from earlier work.
The test system of assay [14] is σ2 binding sites. Conditions: cited from earlier work.
Setting [15] is: HEK cells, hD3, read-out: D3 Ki.
The mark [16] stands for this setting: Table 3, unit inferred, with spread, read-out: D3 binding affinity.

T1 sequence (P14416 whole entry): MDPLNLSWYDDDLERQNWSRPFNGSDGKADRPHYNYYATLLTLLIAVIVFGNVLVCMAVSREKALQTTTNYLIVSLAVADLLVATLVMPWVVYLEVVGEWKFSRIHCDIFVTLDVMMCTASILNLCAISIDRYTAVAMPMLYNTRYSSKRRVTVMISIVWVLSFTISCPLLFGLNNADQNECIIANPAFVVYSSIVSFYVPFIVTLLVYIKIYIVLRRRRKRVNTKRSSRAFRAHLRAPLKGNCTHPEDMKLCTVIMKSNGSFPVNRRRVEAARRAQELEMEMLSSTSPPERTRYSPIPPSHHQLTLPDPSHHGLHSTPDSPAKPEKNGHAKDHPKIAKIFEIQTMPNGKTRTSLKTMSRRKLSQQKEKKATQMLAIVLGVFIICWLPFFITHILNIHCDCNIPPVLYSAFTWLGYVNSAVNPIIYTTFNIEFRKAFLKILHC
Sequence of human dopamine D2-long (D2) receptor (P14416 whole entry): as above
Sequence of serotonin 5HT2A receptor (P28223 whole entry): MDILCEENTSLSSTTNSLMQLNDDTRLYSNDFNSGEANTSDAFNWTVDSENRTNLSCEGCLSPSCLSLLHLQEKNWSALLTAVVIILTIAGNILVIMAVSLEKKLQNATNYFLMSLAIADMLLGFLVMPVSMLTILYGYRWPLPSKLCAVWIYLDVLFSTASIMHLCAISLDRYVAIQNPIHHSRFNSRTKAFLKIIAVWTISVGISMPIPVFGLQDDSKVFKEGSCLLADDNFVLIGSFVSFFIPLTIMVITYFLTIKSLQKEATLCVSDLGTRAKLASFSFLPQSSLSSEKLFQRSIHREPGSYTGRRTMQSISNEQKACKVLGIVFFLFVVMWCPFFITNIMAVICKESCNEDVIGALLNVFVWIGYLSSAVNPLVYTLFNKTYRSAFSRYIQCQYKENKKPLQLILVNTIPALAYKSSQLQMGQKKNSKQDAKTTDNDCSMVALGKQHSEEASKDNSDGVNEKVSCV
Sequence of human dopamine D3 receptor (P35462 whole entry): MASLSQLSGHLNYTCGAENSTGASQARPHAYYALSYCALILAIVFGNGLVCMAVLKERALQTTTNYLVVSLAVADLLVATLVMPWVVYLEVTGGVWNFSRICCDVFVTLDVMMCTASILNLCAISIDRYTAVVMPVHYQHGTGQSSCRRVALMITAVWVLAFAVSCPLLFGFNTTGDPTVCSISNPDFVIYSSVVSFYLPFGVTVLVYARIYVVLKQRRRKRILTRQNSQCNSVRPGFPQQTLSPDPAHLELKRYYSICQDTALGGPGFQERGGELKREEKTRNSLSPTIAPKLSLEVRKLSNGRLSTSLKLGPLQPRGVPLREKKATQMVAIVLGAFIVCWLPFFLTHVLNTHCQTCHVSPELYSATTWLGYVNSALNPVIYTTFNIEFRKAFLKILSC
T2 sequence (P35462 whole entry): as above
Sequence of serotonin 5HT1A receptor (P08908 whole entry): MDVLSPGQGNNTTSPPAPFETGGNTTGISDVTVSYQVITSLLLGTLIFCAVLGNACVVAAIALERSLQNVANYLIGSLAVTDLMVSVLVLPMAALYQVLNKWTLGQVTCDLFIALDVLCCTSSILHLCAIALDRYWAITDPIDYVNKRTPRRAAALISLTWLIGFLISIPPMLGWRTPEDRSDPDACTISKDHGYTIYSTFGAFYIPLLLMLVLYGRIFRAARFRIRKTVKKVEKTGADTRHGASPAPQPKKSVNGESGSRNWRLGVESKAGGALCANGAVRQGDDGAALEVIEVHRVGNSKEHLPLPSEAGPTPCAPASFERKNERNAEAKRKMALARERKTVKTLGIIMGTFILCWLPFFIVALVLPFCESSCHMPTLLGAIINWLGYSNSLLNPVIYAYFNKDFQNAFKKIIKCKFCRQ
T3 sequence (P21917 whole entry): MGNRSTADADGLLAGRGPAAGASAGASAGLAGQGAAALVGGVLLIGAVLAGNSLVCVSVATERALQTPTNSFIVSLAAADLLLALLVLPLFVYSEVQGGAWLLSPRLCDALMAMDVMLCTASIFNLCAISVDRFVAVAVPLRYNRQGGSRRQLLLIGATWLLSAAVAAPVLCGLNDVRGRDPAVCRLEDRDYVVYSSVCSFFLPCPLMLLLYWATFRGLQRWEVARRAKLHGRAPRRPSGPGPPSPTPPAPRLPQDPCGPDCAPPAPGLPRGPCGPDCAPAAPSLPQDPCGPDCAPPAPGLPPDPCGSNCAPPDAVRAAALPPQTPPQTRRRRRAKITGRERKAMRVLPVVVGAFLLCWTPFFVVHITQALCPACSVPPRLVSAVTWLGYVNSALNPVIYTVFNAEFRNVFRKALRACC
Sequence of serotonin 5HT2c receptor (P28335 33-458): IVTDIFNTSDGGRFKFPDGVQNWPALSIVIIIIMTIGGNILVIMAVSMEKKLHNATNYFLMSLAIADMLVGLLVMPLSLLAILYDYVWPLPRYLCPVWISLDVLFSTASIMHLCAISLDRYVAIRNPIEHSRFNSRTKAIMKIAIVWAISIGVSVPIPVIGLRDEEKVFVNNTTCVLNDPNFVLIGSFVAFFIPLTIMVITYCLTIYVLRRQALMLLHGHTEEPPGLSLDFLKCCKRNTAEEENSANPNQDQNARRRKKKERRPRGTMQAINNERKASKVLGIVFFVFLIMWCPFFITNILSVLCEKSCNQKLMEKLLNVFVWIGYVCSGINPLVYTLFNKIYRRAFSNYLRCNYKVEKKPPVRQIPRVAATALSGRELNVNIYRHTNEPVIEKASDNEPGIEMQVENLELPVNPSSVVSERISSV
Sequence of D1a dopamine receptors (P21728 whole entry): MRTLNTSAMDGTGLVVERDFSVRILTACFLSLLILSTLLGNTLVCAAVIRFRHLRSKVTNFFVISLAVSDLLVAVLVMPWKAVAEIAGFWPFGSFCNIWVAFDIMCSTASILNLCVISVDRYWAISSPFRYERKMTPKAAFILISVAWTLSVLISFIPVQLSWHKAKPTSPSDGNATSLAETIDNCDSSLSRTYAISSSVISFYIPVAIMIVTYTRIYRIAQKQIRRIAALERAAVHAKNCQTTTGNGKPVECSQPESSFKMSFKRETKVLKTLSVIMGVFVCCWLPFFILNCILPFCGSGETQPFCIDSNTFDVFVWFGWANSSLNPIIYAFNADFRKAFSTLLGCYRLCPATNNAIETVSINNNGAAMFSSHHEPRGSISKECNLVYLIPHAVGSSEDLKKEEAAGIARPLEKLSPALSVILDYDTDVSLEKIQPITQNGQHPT

For `O=C(NC/C=C/CN1CCN(c2cccc(Cl)c2Cl)CC1)c1ccc(-c2cccc(=O)[nH]2)cc1` [Compound 9, N-(4-(4-(2,3-Dichloro-phenyl)-piperazin-1-yl)-trans-but-2-enyl)-4-(6-oxo-1,6-dihydro-pyridin-2-yl)-benzamide], the Ki in [1] (setting [15]) came to 0.6 nM; in [1] (setting [16]), 0.6 ± 0.1 nM; in assay [3] it was 23.6 nM. In assay [2], the IC50 stood at 41 ± 8 nM.
For the compound `Cc1cccc(-c2ccc(C(=O)NC/C=C/CN3CCN(c4cccc(Cl)c4Cl)CC3)cc2)n1` [Compound 10, N-(4-(4-(2,3-Dichloro-phenyl)-piperazin-1-yl)-trans-but-2-enyl)-4-(6-methyl-pyridin-2-yl)-benzamide], the 5HT2c/D in assay [4] amounted to 69. Further, the results for the Ki in assay [1] (setting [15]), in assay [1] (setting [16]) and in assay [3] were 1.4 nM, 1.4 ± 0.3 nM and 105 nM, respectively. Further, in [1], the D2/D3 was found to be 75. For the same compound, the 5HT2A/D3 in assay [5] was determined as 66. For the same compound, in assay [6], the 5HT1A/D3 was determined as 221. Further, the results for the IC50 in assay [2] and in assay [7] were 1300 ± 320 nM and 6.7 ± 2.6 nM, respectively.
Take `Cc1cccnc1-c1ccc(C(=O)NC/C=C/CN2CCN(c3cccc(Cl)c3Cl)CC2)cc1` [Compound 11, N-(4-(4-(2,3-Dichlorophenyl)piperazin-1-yl)-trans-but-2-enyl)-4-(3-methyl-pyridin-2-yl)-benzamide]: in assay [4], the 5HT2c/D worked out at 19. For the same compound, the Ki in [1] (setting [15]) is 1.6 nM; in assay [1] (setting [16]), 1.6 ± 0.4 nM; in [3] it was 92 nM. For the same compound, the D2/D3 in assay [1] is reported as 58. Besides, the 5HT2A/D3 in assay [5] amounted to 29. Further, in [6], the 5HT1A/D3 came out at 58. The IC50 in [2] is 368 ± 113 nM; in assay [7], 25.6 ± 8.5 nM.
Regarding `O=C(NC/C=C/CN1CCN(c2cccc(Cl)c2Cl)CC1)c1ccc(-c2cccc[n+]2[O-])cc1` [Compound 12, N-(4-(4-(2,3-Dichloro-phenyl)-piperazin-1-yl)-trans-but-2-enyl)-4-(pyridin-N-oxide-2-yl)-benzamide], the Ki in [1] (setting [15]) is 1.1 nM; in [1] (setting [16]), 1.1 ± 0.3 nM; in assay [3] it was 25.8 nM. In addition, in [2], the IC50 worked out at 22.9 ± 2 nM. In assay [8], the “partial agonist activity: % stimulation, D2” value was found to be 31%. Moreover, the EC50 in assay [8] stood at 231 nM.
Take `COc1ccccc1N1CCN(C/C=C/CNC(=O)c2ccc(-c3ccccn3)cc2)CC1` [Compound 14, N-(4-(4-(2-Methoxy-phenyl)-piperazin-1-yl)-trans-but-2-enyl)-4-pyridin-2-yl-benzamide]: the Ki in assay [1] (setting [15]) is 2.9 nM; in assay [1] (setting [16]) it was 2.9 ± 1.1 nM. In addition, the half-maximal inhibitory concentration (IC50) in [7] turned out to be 42.6 ± 7.9 nM.
`COc1ccccc1N1CCN(C/C=C/CNC(=O)c2ccc3c(c2)Cc2ccccc2-3)CC1` [Compound 15, N-(4-(4-(2-methoxyphenyl)piperazin-1-yl)-trans-but-2-enyl)-9H-fluorene-2-carboxamide]: the 50% inhibitory concentration (IC50) in assay [2] came to 179 ± 48 nM. In assay [3], this compound showed a Ki of 48.4 nM.
`O=C(NCCC(O)CN1CCN(c2cccc(Cl)c2Cl)CC1)c1ccc(-c2ccccn2)cc1` (centres unmarked) [Compound 16, N-(4-(4-(2,3-Dichlorophenyl)piperazin-1-yl)-3-hydroxybutyl)-4-pyridin-2-yl-benzamide]: the 5HT2c/D in [4] is 38. The Ki in assay [1] (setting [15]) was 3 nM; in assay [1] (setting [16]) it was 3 ± 0.2 nM; in assay [9], 4620 nM; in assay [3], 267 nM. Moreover, the D2/D3 in assay [1] turned out to be 89. The “D4/D3 Ki ratio” value in assay [9] was found to be 1540. Also, the 5HT2A/D3 in assay [5] stood at 14. For the same compound, the 5HT1A/D3 in assay [6] worked out at 11. The “partial agonist activity: % stimulation, D3” value in assay [10] is on record as 48%. Also, the EC50 was 1 ± 0.1 nM in [10] and 15.8 ± 2.7 nM in assay [8]. The “partial agonist activity: % stimulation, D2” value in assay [8] is 26%.
With `COc1ccccc1N1CCN(CC(O)CCNC(=O)c2ccc(-c3ccccn3)cc2)CC1` (centres unmarked) [Compound 18, N-(3-Hydroxy-4-(4-(2-methoxy-phenyl)-piperazin-1-yl)-butyl)-4-pyridin-2-yl-benzamide], the 5HT2c/D in assay [4] is on record as 1407. For the same compound, the Ki in [1] (setting [15]) was 2.8 nM; in assay [1] (setting [16]), 2.8 ± 0.8 nM; in [9] it was 1490 nM; in assay [3], 284 nM. For the same compound, the D2/D3 in assay [1] stood at 101. Moreover, in [9], the “D4/D3 Ki ratio” value is reported as 532. The 5HT2A/D3 in assay [5] is listed as 248. The 5HT1A/D3 in [6] was 13. The IC50 in [7] worked out at 12.8 ± 1.3 nM.
For the compound `O=C(NCC(O)CCN1CCN(c2cccc(Cl)c2Cl)CC1)c1ccc(-c2ccccn2)cc1` (centres unmarked) [Compound 21, N-(4-(4-(2,3-Dichlorophenyl)piperazin-1-yl)-2-hydroxybutyl)-4-(pyridin-2-yl)-benzamide], the 5HT2c/D in assay [4] was found to be 50. The Ki was 0.5 nM in assay [1] (setting [15]), 0.5 ± 0.1 nM in assay [1] (setting [16]) and 28.4 nM in [3]. Further, the D2/D3 in [1] is 57. For the same compound, the 5HT2A/D3 in assay [5] was 31. For the same compound, in assay [6], the 5HT1A/D3 stood at 30. The IC50 amounted to 88.3 ± 15.7 nM in [2] and 5.4 ± 1.8 nM in assay [7]. For the same compound, the “partial agonist activity: % stimulation, D3” value in assay [10] was 20%. Further, the half-maximal effective concentration (EC50) in assay [10] is 3.4 nM.
`COc1cc([125I])cc(C(=O)NC2CC3CCCC(C2)N3Cc2ccccc2)c1OC` (centres unmarked) [^125I-IABN]: in assay [11], the “affinity to D1a dopamine receptors” value was “low affinity”. Also, the “affinity to σ1 binding sites” value in assay [12] is “low affinity”. Also, in [13], the “fold lower affinity to human D4.4 dopamine receptors” value is 7- to 10 fold. The “affinity to σ2 binding sites” value in assay [14] is reported as “low affinity”.

One may read the IC50 as the midpoint of a concentration-inhibition curve. Broadly, the EC50 is the concentration that produces a half-maximal response.
